The nature of data set [1]: Half-life in plasma. The format is in vitro ADME. The following applies: unit inferred, unit assumed.
For data set [2], the system named is Calpain-mediated breakdown of spectrin in platelets. Briefly: Platelet membrane permeability assay. The format is cell-based, rat. On the set-up: key: +++ = excellent activity; ++ = good activity; + = moderate activity; quantitative measurements not yet complete. The settings on record: class symbols; quantitative measurements not yet complete. The procedure:
(§1) Platelet membrane permeability assay. Calpain-mediated breakdown of spectrin was measured by quantitative densitometry of the calpain-specific 150/155 kDa spectrin fragment doublet [see Siman et al., Proc. Natl. Acad. Sci. USA 81, 3572-3576 (1984)]. Platelets were isolated by a modification of the method of Ferrell and Martin [J. Biol. Chem. 264, 20723-20729 (1989)]. Blood (15-20 ml) was drawn from male Sprague-Dawley rats into 1/10th volume of 100 mM EDTA-citrate, and centrifuged 10 minutes at 2000 rpm in a clinical centrifuge at room temperature. […] Platelets were washed once in 15 ml buffer 1, then resuspended to 10^7 cells/ml in buffer 2 (136 mM NaCl, 2.7 mM KCl, 0.42 mM NaH2 PO4, 12 mM NaHCO3, 2mM MgCl, 1 mg/ml BSA (Sigma), 5.6 mM glucose, 20 mM HEPES (Sigma) pH 7.4) and allowed to "rest" for a minimum of 10 minutes at room temperature before use.
(§2) Inhibitors were added from stock solutions made fresh in DMSO. 100 μl platelets, suspended to 10^7 cells/ml in buffer 2, were incubated with 1 μl of an inhibitor solution for 5 minutes at room temperature prior to the addition of 2 mM Ca^2+ and 1 uM A23 187. After 10 minutes total exposure to inhibitor (5 minutes exposure to ionophore) at room temperature, platelets were reisolated at 14,000 rpm for 10 sec in a Beckman microfuge, dissolved in SDS-PAGE sample buffer, and heated to 90° C. for 3 minutes.
(§3) Samples were subjected to SDS-PAGE in 4-12% gradient mini gels (Novex) and transferred to nitrocellulose (Schleicher and Schuell 0.45 um) by electroblotting. Filters were blocked for 10 minutes in 0.25% gelatin, 1% BSA, 0.25% triton X100, 0.9% NaCl, 10 mM Tris-Cl pH 7.5, incubated overnight in the same solution containing antibody to rat spectrin, washed 3×10 minutes with 10 mM Tris-Cl pH 7.5, 0.5% triton X100, incubated 4 hours in wash buffer plus alkaline phosphatase conjugated goat anti-rabbit antibody (Biorad), and washed as above. Blots were developed using the Biorad AP conjugate substrate kit. Quantitative densitometry was used to obtain values for the intact spectrin bands and the 150/155 kDa breakdown product doublet.

In data set [3] the target is T1, papain (Carica papaya, UniProt P00784).
T1 sequence (P00784 134-345): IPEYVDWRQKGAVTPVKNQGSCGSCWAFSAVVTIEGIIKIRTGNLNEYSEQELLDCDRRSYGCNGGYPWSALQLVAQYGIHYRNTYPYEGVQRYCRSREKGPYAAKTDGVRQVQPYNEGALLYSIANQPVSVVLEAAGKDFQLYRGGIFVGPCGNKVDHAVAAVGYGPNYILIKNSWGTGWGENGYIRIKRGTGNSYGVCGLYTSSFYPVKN
The settings on record: reported by Hu and Abeles; cited from earlier work.

Data set [4] deals with cathepsin B (Homo sapiens, UniProt P07858). The following applies: reported by Hu and Abeles; cited from earlier work.
The nature of data set [5]: Half-life in liver. Format: in vitro ADME. The following applies: unit inferred, unit assumed.
Data set [6] addresses porcine pancreatic elastase (PPE) (Sus scrofa, UniProt P00772). As to the kind of experiment: Inhibition of PP elastase (Suc-Ala-Ala-Ala-NA hydrolysis). The format is biochemical. The procedure:
(§4) Assay of Inhibitory Potency. Peptide α-ketoamides were assayed as reversible enzyme inhibitors. Various concentrations of inhibitors in Me2 SO were added to the assay mixture which contained buffer and substrate. The reaction was started by the addition of the enzyme and the hydrolysis rates were followed spectrophotometrically or fluorimetrically.
(§5) A 0.1M Hepes, 0.5M NaCl, pH 7.5 buffer was utilized for human leukocyte elastase (HLE), porcine pancreatic elastase (PPE), chymotrypsin and cathepsin G. A 0.1 Hepes, 0.01M CaCl2, pH 7.5 buffer was utilized for trypsin, plasmin, and coagulation enzymes. A 50 mM Tris-HCl, 2 mM EDTA, 5 mM cysteine, pH 7.5 was used as a buffer for papain. A 88 mM KH2 PO4, 12 mM Na2 HPO4, 1.33 mM EDTA, 2.7 mM cysteine, pH 6.0 solution was used as a buffer for cathepsin B. A 20 mM Hepes, 10 mM CaCl2, 10 mM mercatoethanol, pH 7.2 buffer was utilized for calpain I and calpain II.
(§6) HLE and PPE were assayed with MeO-Suc-Ala-Ala-Pro-Val-NA and Suc-Ala-Ala-Ala-NA, respectively [Nakajima et al., J. Biol. Chem. 254, 4027-4032 (1979); incorporated herein by reference]. Human leukocyte cathepsin G and chymotrypsin Aα were assayed with Suc-Val-Pro-Phe-NA [Tanaka et al., Biochemistry 24, 2040-2047 (1985); incorporated herein by reference]. The hydrolysis of peptide 4-nitroanilides was measured at 410 nm [ε410 =8800 M^-1 cm^-1; Erlanger et al., Arch. Biochem. Biophys. 95, pp 271-278 (1961); incorporated herein by reference]. Trypsin, thrombin, human plasma kallikrein, porcine pancreatic kallikrein, human factor XIa, and human plasmin were assayed with Z-Arg-SBzl or Z-Gly-Arg-SBu-i [McRae et al., Biochemistry 20, 7196-7206 (1981); incorporated herein by reference]. All peptide thioester hydrolysis rates were measured with assay mixtures containing 4,4'-dithiodipyridine [ε324 =19800 M^-1 cm^-1; Grasetti & Murray, Arch. Biochem. Biophys. 119, 41-49 (1967); incorporated herein by reference].

Data set [7] addresses Calpain II from rabbit muscle. As to the kind of experiment: Inhibition of calpain II (Suc-Leu-Tyr-AMC hydrolysis). The format is biochemical. On the procedure: (§7) Materials and Methods. HEPES, heparin, and A23187 were obtained from Calbiochem. Suc-Leu-Tyr-AMC and chromogenic substrates were obtained from Sigma. Calpain I was purified from human erythrocytes according to the method of Kitahara (Kitahara et al., J. Biochem. 95, 1759-1766) omitting the Blue-Sepharose step. Calpain II from rabbit muscle and cathepsin B were purchased from Sigma. Papain was purchased from Calbiochem.
as §4
(§8) Calpain I from human erythrocytes and calpain II from rabbit were assayed using Suc-Leu-Tyr-AMC [Sasaki et al., J. Biol. Chem. 259, 12489-12494 (1984); incorporated herein by reference], and the AMC (7-amino-4-methylcoumarin) release was followed fluorimetrically (excitation at 380 nm, and emmision at 460 nm). Calpains were assayed in 25 mM Tris pH=8.0, 10 mM CaCl2. Fluorescence was followed using a Gilson FL-1A fluorometer or a Perkin-Elmer 203 Fluorescence spectrometer. Cathepsin B was assayed in 20 mM sodium acetate pH=5.2, 0.5 mM dithiothreitol using Bz-Phe-Val-Arg-p-nitroanilide as substrate. Alternately, cathepsin B was assayed with Z-Arg-Arg-AFC [Barrett and Kirschke, Methods Enzymol. 80, 535-561 (1981); incorporated herein by reference], and the AFC (7-amino-4-trifluoromethylcoumarin) release was followed fluorimetrically (excitation at 400 nm and emmision at 505 nm). Papain was assayed in 100 mM KPO4, 1 mM EDTA, 2.5 mM cysteine pH=6.0 using Bz-Arg-AMC or Bz-Arg-NA [Kanaoka et al., Chem. Plmrm. Bull. 25, 3126-3128 (1977); incorporated herein by reference] as a substrate. The AMC (7-amino-4-methylcoumarin) release was followed fluorimetrically (excitation at 380 nm, and emmision at 460 nm). Enzymatic hydrolysis rates were measured at various substrate and inhibitor concentrations, and KI values were determined by either Lineweaver-Burk plots or Dixon plots.
as §5

Data set [8] addresses chymotrypsin (Bos taurus, UniProt P00766, DEL14-15/DEL147-148). Briefly: Inhibition of chymotrypsin (Suc-Val-Pro-Phe-NA hydrolysis). The format is biochemical, bovine. On the procedure:
as §4, §5, §6

In data set [9] the target is cathepsin B. Briefly: Inhibition of cathepsin B. Format: biochemical. The following applies: read-out: KI Cath B. On the procedure:
as §7, §4, §8, §5

Data set [10] has as its system Calpain-mediated breakdown of spectrin in platelets. Briefly: Platelet membrane permeability assay. Format: cell-based, rat. The following applies: numeric value, unit not given. On the set-up: unit not given here. The procedure:
as §1, §2, §3

Chain of porcine pancreatic elastase (PPE) (P00772 27-266): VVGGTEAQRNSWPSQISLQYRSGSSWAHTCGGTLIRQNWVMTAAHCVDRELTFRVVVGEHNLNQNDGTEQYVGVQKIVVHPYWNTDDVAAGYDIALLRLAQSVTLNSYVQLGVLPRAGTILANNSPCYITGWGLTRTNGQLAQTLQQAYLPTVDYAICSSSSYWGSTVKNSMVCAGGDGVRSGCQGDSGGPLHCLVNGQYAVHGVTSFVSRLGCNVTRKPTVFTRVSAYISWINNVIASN

In turn, `CC(C)CC(NC(=O)OCc1ccccc1)C(=O)NC(Cc1ccccc1)C(=O)C(=O)OCc1ccccc1` (stereo not drawn) [Z--Leu--Phe--COOBz] yielded a t 1/2 plasma in data set [1] of 1.9 min. Moreover, the “platelet (Activity in the Platelet Assay)” value (“platelet” for short) in [2] was “++”.

For `CC[C@H](NC(=O)[C@H](CC(C)C)NC(=O)OCc1ccccc1)C(=O)C(=O)OCc1ccccc1` [Z--Leu--Abu--COOBzl], the “platelet” value in data set [2] is given as “++”.

A word on the Ki: it is the dissociation constant of the complex between target and ligand, obtained from inhibition or displacement. As to `CCNC(=O)C(=O)CNC(=O)[C@H](Cc1ccccc1)NC(=O)OCc1ccccc1` [Z-Phe-Gly-CO--NH-Et], the Ki was 1500 nM in data set [3] and 4000 nM in data set [4].

For the compound `CCOC(=O)C(=O)C(CCSC)NC(=O)C(CC(C)C)NC(=O)OCc1ccccc1` (stereo not drawn) [Z--Leu--Met--COOEt], the t 1/2 plasma in data set [1] was 8 min. The “platelet” value in data set [2] is “+”.

In data set [1], `CCCNC(=O)C(=O)[C@H](CC)NC(=O)[C@H](CC(C)C)NC(=O)OCc1ccccc1` [Z--Leu--Abu--CONH--nPr, Z-Leu-Abu-CONH-nPr] returned a t 1/2 plasma above 60 min. Besides, the t 1/2 liver in data set [5] is above 60 min. The Ki in data set [6] was 2000 nM; in data set [7] it was 250 nM; in [8], above 300000 nM; in data set [9], 8000 nM. In addition, the “platelet” value in [10] turned out to be 70.

In the case of `CCCCNC(=O)C(=O)C(Cc1ccccc1)NC(=O)C(CC(C)C)NC(=O)OCc1ccccc1` (stereo not drawn) [Z--Leu--Phe--CONH--nBu, Z-Leu-Phe-CONH-nBu], the t 1/2 plasma in data set [1] was above 60 min. In [5], this compound had a t 1/2 liver above 60 min. Moreover, the Ki in data set [6] was above 100000 nM; in data set [7] it was 28 nM; in [8] it was 8000 nM; in [9], 3000 nM. Besides, the “platelet” value in [10] was 38.

As to `CCOC(=O)C(=O)[C@H](Cc1ccccc1)NC(=O)[C@H](CC(C)C)NC(=O)[C@H](CC(C)C)NC(=O)OCc1ccccc1` [Z--Leu--Leu--Phe--COOEt], the “platelet” value in [2] is “++”.

Regarding `CCCCOC(=O)C(=O)[C@H](Cc1ccccc1)NC(=O)[C@H](CC(C)C)NC(=O)OCc1ccccc1` [Z--Leu--Phe--COOnBu], in data set [1], the t 1/2 plasma turned out to be 7.7 min. Also, the “platelet” value in data set [2] was “+++”.

Source of the values: patent publication US5610297A, “Peptides ketoamides” (Georgia Tech Research Corp., priority 1995, dated 1997).
